Assay results as given in article PMC9486951, “Tetramate Derivatives by Chemoselective Dieckmann Ring Closure of threo-Phenylserines and Their Antibacterial Activity” (The Journal of Organic Chemistry, 2022).
In brackets after ≈: the same amount, converted by molar mass. Read-outs that look alike come from different tables or passages of the source.

Key:
[1] = test system: methicillin-resistant Staphylococcus aureus (MRSA); experiment: MIC determination by broth dilution assay against MRSA; assay type: cell-based
Procedure: (§1) With access to these derivatives routinely available, an assessment of their antibacterial activity was made by measuring minimum inhibitory concentration (MIC) values (Table S6) against two example organisms, methicillin-resistant Staphylococcus aureus (MRSA) and E. coli. […] By contrast, a more polar substituent at the C7-position (pyran 12t) compromised the antibacterial activity (125 μg/mL). […] Compound 13b had the same activity as 12g at 1.00 μg/mL. Overall, increasing lipophilicity corresponded to higher potency against MRSA. […]
(§2) Screening of compounds were performed by Oxford Antibiotic Group, Austria. For MIC determination by broth dilution assay, the samples were tested in a primary 96 well plates screening assay, in duplicate. The compounds were diluted in Mueller Hinton Broth (MHB) for bacterial screening to a stock solution of 1000 µg/mL, serial diluted and overlaid with a microbe solution in a concentration of 10^4 CFU/ml. […]

[2] = test system: E. coli; experiment: MIC determination by broth dilution assay against E. coli; assay type: cell-based
Procedure: as §1, §2

[3] = Staphylococcus aureus, MRSA, Table S5, against S. aureus, read-out: MIC
[4] = Staphylococcus aureus, MRSA, broth dilution, read-out: MIC against MRSA

MIC [1, 3] [µg/mL]	MIC ([1]; Table S6) [µg/mL]	MIC [1, 4] [µg/mL]	MIC ([1]; Staphylococcus aureus, MRSA, Table S6, read-out: MIC) [µg/mL]	MIC ([1]; Table S5, against S. aureus) [µg/mL]	Structure (SMILES)	antibacterial activity against MRSA (in words) [1]	antibacterial activity against E. coli (in words) [2]
0.49 (≈ 0.99 µM)	0.49 (≈ 0.99 µM)				CC(C)(C)[C@@H]1O[C@H](c2ccccc2)[C@H]2C(O)=C(C(=O)Nc3ccc(C(F)(F)F)cc3Cl)C(=O)N21 (racemic) [12i]	high activities	
3.9 (≈ 7.88 µM)	3.9 (≈ 7.88 µM)				CC(C)(C)[C@@H]1O[C@H](c2ccccc2)[C@H]2C(O)=C(C(=O)Nc3ccc(Cl)cc3C(F)(F)F)C(=O)N21 (racemic) [12j]		
3.9 (≈ 9.27 µM)	3.9 (≈ 9.27 µM)				Cc1ccc(NC(=O)C2=C(O)[C@@H]3[C@@H](c4ccccc4)O[C@@H](C(C)(C)C)N3C2=O)c(C)c1 (racemic) [12k]		
1 (≈ 2.36 µM)	1.0 (≈ 2.36 µM)				Cc1cc(F)ccc1NC(=O)C1=C(O)[C@@H]2[C@@H](c3ccccc3)O[C@@H](C(C)(C)C)N2C1=O (racemic) [12l]	high activities	
0.49 (≈ 1.03 µM)	0.49 (≈ 1.03 µM)	0.49 (≈ 1.03 µM)			CCCCCCc1ccc(NC(=O)C2=C(O)[C@@H]3[C@@H](c4ccccc4)O[C@@H](C(C)(C)C)N3C2=O)cc1 (racemic) [12m]		
1 (≈ 2.51 µM)	1.0 (≈ 2.51 µM)	1 (≈ 2.51 µM)			CC(C)(C)[C@@H]1O[C@H](c2ccccc2)[C@H]2C(O)=C(C(=O)NC3CCCCC3)C(=O)N21 (racemic) [12n]		
1 (≈ 2.42 µM)	1.0 (≈ 2.42 µM)	1 (≈ 2.42 µM)			CC(C)(C)[C@@H]1O[C@H](c2ccccc2)[C@H]2C(O)=C(C(=O)NC3CCCCCC3)C(=O)N21 (racemic) [12o]		
3.9 (≈ 9.74 µM)	3.9 (≈ 9.74 µM)	3.9 (≈ 9.74 µM)			CCCCCCNC(=O)C1=C(O)[C@@H]2[C@@H](c3ccccc3)O[C@@H](C(C)(C)C)N2C1=O (racemic) [12p]		
0.49 (≈ 1.11 µM)	0.49 (≈ 1.11 µM)	0.49 (≈ 1.11 µM)			CCCCCCCCCNC(=O)C1=C(O)[C@@H]2[C@@H](c3ccccc3)O[C@@H](C(C)(C)C)N2C1=O (racemic) [12q]		
0.49 (≈ 1.01 µM)	0.49 (≈ 1.01 µM)	0.49 (≈ 1.01 µM)			CCCCCCCCCCCCNC(=O)C1=C(O)[C@@H]2[C@@H](c3ccccc3)O[C@@H](C(C)(C)C)N2C1=O (racemic) [12r]		
1 (≈ 2.11 µM)	1.0 (≈ 2.11 µM)	1 (≈ 2.11 µM)			CC(C)(C)[C@@H]1O[C@H](c2ccccc2)[C@H]2C(O)=C(C(=O)Nc3ccc(C4CCCCC4)cc3)C(=O)N21 (racemic) [12s]		
125 (≈ 312 µM)	125 (≈ 312 µM)	125 (≈ 312 µM)			CC(C)(C)[C@@H]1O[C@H](c2ccccc2)[C@H]2C(O)=C(C(=O)NC3CCOCC3)C(=O)N21 (racemic) [12t]		
15.6 (≈ 38.4 µM)	15.6 (≈ 38.4 µM)	15.6 (≈ 38.4 µM)			CC(C)(C)[C@@H]1O[C@H](c2ccccc2)[C@H]2C(O)=C(C(=O)NCc3ccccc3)C(=O)N21 (racemic) [12u]		
3.9 (≈ 10.5 µM)	3.9 (≈ 10.5 µM)				CC(C)(C)NC(=O)C1=C(O)[C@@H]2[C@@H](c3ccccc3)O[C@@H](C(C)(C)C)N2C1=O (racemic) [12v]	comparable activity with the hexyl 12p	
		1 (≈ 2.2 µM)	1 (≈ 2.2 µM)	1.0 (≈ 2.2 µM)	Cc1ccc([C@H]2O[C@@H](C(C)(C)C)N3C(=O)C(C(=O)Nc4ccc(Cl)cc4C)=C(O)[C@H]23)cc1 (racemic) [13b]		
					CCOC(=O)C1=C(O)[C@@H]2[C@@H](c3ccc(C)cc3)O[C@@H](C(C)(C)C)N2C1=O [10b]	no activity	no activity
